Source: ChEMBL document CHEMBL1201862, “PubChem BioAssay data set” (2004)
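Dose response: 5 concentrations. Exposure: 48 h. Format: 96-well plates. Endpoint: linear interpolation; highest concentration if not reached. GI50: concentration for 50% inhibition of growth.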 Activity calls are given as the source filed them. Cut-off read from the data, not from the text of the source: active = GI50 up to about 1.1 µM and inactive = higher.

Legend:
Assay in all cases: growth of human tumour cells (NCI), 48 h
[1] = test system: A498
[2] = test system: A549
[3] = test system: HCT-116
[4] = test system: HL-60
[5] = test system: HOP-92
[6] = test system: LOX IMVI
[7] = test system: Malme-3M
[8] = test system: NCI-H226
[9] = test system: NCI-H522
[10] = test system: RPMI-8226
[11] = test system: SF-268
[12] = test system: SK-MEL-5
[13] = test system: SK-OV-3
[14] = test system: TK-10
[15] = test system: UACC-257
[16] = test system: DU-145
[17] = test system: MCF7
[18] = test system: NCI/ADR-RES
[19] = test system: T47D

SMILES | GI50 [1] | GI50 [2] | GI50 [3] | GI50 [4] | GI50 [5] | GI50 [6] | GI50 [7] | GI50 [8] | GI50 [9] | GI50 [10] | GI50 [11] | GI50 [12] | GI50 [13] | GI50 [14] | GI50 [15] | GI50 [16] | GI50 [17] | GI50 [18] | GI50 [19]
COC(=O)CCC(=O)C(CC(=O)OC)C(=O)CCC(=O)NCCc1ccccc1 (stereo not given) | > 100 µM (inactive) | > 100 µM (inactive) | > 100 µM (inactive) | > 100 µM (inactive) | > 100 µM (inactive) | > 100 µM (inactive) | > 100 µM (inactive) | > 100 µM (inactive) | > 100 µM (inactive) | > 100 µM (inactive) | > 100 µM (inactive) | > 100 µM (inactive) | > 100 µM (inactive) | > 100 µM (inactive) | > 100 µM (inactive) | – | – | – | –
O/N=C1\SC(=N\O)/C(=N/O)S\C1=N/O | > 100 µM (inactive) | > 100 µM (inactive) | 68.4 µM (inactive) | 21 µM (inactive) | > 100 µM (inactive) | > 100 µM (inactive) | > 100 µM (inactive) | > 100 µM (inactive) | 16.2 µM (inactive) | 83.2 µM (inactive) | – | 38.7 µM (inactive) | > 100 µM (inactive) | – | > 100 µM (inactive) | > 100 µM (inactive) | > 100 µM (inactive) | > 100 µM (inactive) | –
C(=N\CCCN1CCN(CCC/N=C/c2cccc3ccccc23)CC1)/c1cccc2ccccc12 | – | > 100 µM (inactive) | 27.7 µM (inactive) | – | – | 42.5 µM (inactive) | > 100 µM (inactive) | 48.6 µM (inactive) | > 100 µM (inactive) | 36 µM (inactive) | > 100 µM (inactive) | > 10 µM (inactive) | > 100 µM (inactive) | 72.1 µM (inactive) | > 100 µM (inactive) | – | – | 38.8 µM (inactive) | > 100 µM (inactive)
COc1ccccc1C(=O)c1ccc2ccccc2c1 | – | 17.9 µM (inactive) | 39.7 µM (inactive) | 3.21 µM (inactive) | 18.7 µM (inactive) | 12.6 µM (inactive) | 10.8 µM (inactive) | 31.5 µM (inactive) | 5.85 µM (inactive) | 16.2 µM (inactive) | 30.5 µM (inactive) | 6.19 µM (inactive) | – | 17.8 µM (inactive) | 30.6 µM (inactive) | 20.6 µM (inactive) | 8.15 µM (inactive) | 41.3 µM (inactive) | –
Cc1ccc(NC(=O)C(=O)CC(=O)c2sc(Nc3c(C)cccc3C)nc2C)cc1C | – | > 100 µM (inactive) | > 100 µM (inactive) | 55.2 µM (inactive) | > 100 µM (inactive) | > 100 µM (inactive) | – | > 100 µM (inactive) | 71.4 µM (inactive) | > 100 µM (inactive) | > 100 µM (inactive) | > 100 µM (inactive) | > 100 µM (inactive) | > 100 µM (inactive) | > 100 µM (inactive) | > 100 µM (inactive) | > 100 µM (inactive) | > 100 µM (inactive) | > 100 µM (inactive)
CN(C(=O)CC(=O)CP(=O)(c1ccccc1)c1ccccc1)c1ccccc1 | – | > 100 µM (inactive) | > 100 µM (inactive) | > 100 µM (inactive) | – | – | – | > 100 µM (inactive) | > 100 µM (inactive) | > 100 µM (inactive) | > 100 µM (inactive) | > 100 µM (inactive) | > 100 µM (inactive) | > 100 µM (inactive) | > 100 µM (inactive) | > 100 µM (inactive) | > 100 µM (inactive) | > 100 µM (inactive) | > 100 µM (inactive)
N#Cc1c(N2CCOCC2)[nH]c(=O)c(C(c2c(Cl)cccc2Cl)c2c(O)c(C#N)c(N3CCOCC3)[nH]c2=O)c1O | 34.5 µM (inactive) | 77.6 µM (inactive) | 28.3 µM (inactive) | 12.9 µM (inactive) | 18 µM (inactive) | 13 µM (inactive) | 12.9 µM (inactive) | 23 µM (inactive) | 13.4 µM (inactive) | 21.4 µM (inactive) | 19.5 µM (inactive) | 16.6 µM (inactive) | – | 17.5 µM (inactive) | 17.8 µM (inactive) | 23.9 µM (inactive) | 16.7 µM (inactive) | 27.4 µM (inactive) | –
CC(=O)Nc1ccc(CNc2cc(=O)[nH]c(=O)[nH]2)cc1 | – | > 100 µM (inactive) | > 100 µM (inactive) | > 100 µM (inactive) | > 100 µM (inactive) | > 100 µM (inactive) | > 100 µM (inactive) | > 100 µM (inactive) | > 100 µM (inactive) | > 100 µM (inactive) | > 100 µM (inactive) | > 100 µM (inactive) | > 100 µM (inactive) | > 100 µM (inactive) | > 100 µM (inactive) | > 100 µM (inactive) | > 100 µM (inactive) | > 100 µM (inactive) | > 100 µM (inactive)
O=P1(c2ccccc2)CCCCC1 | > 100 µM (inactive) | > 100 µM (inactive) | > 100 µM (inactive) | > 100 µM (inactive) | – | > 100 µM (inactive) | > 100 µM (inactive) | > 100 µM (inactive) | > 10 µM (inactive) | > 100 µM (inactive) | – | > 100 µM (inactive) | > 100 µM (inactive) | > 100 µM (inactive) | > 100 µM (inactive) | – | – | – | –
COc1ccc(NC(=O)C2C(=O)N(c3ccc(OC)cc3)C(=O)/C2=N\NC(N)=O)cc1 (stereo not given) | 22.1 µM (inactive) | – | 21.2 µM (inactive) | – | 31.3 µM (inactive) | 65.8 µM (inactive) | 25.7 µM (inactive) | 21.8 µM (inactive) | 45.6 µM (inactive) | > 100 µM (inactive) | 20.2 µM (inactive) | 17.8 µM (inactive) | 22.1 µM (inactive) | 23.9 µM (inactive) | 46.9 µM (inactive) | – | – | – | –
O=c1c(Sc2c(SCSc3cnc4ccccc4c3Sc3c[nH]c4ccccc4c3=O)cnc3ccccc23)c[nH]c2ccccc12 | – | > 10 µM (inactive) | > 100 µM (inactive) | 0.54 µM (active) | 34 µM (inactive) | > 100 µM (inactive) | – | – | > 100 µM (inactive) | 14.5 µM (inactive) | 92.3 µM (inactive) | 39.6 µM (inactive) | – | > 100 µM (inactive) | > 100 µM (inactive) | > 100 µM (inactive) | – | > 100 µM (inactive) | > 100 µM (inactive)
CC(C)n1c(=O)[nH]n(-c2ccccc2)c1=O | > 100 µM (inactive) | > 100 µM (inactive) | > 100 µM (inactive) | > 100 µM (inactive) | > 100 µM (inactive) | > 100 µM (inactive) | > 100 µM (inactive) | > 100 µM (inactive) | > 100 µM (inactive) | > 100 µM (inactive) | > 100 µM (inactive) | > 100 µM (inactive) | > 100 µM (inactive) | > 100 µM (inactive) | > 100 µM (inactive) | > 100 µM (inactive) | > 100 µM (inactive) | > 100 µM (inactive) | –
CC(=O)Nc1ccccc1NC1CC(C)N(c2ccccc2)N1C(C)=O (stereo not given) | – | > 10 µM (inactive) | – | > 10 µM (inactive) | > 10 µM (inactive) | – | > 10 µM (inactive) | – | – | > 10 µM (inactive) | > 10 µM (inactive) | > 10 µM (inactive) | > 10 µM (inactive) | > 10 µM (inactive) | > 10 µM (inactive) | > 10 µM (inactive) | > 10 µM (inactive) | – | > 10 µM (inactive)
CCOC(=O)c1ccc(-n2c(SCC)nc3sc(C)c(C)c3c2=O)cc1 | 25.2 µM (inactive) | > 100 µM (inactive) | > 100 µM (inactive) | > 100 µM (inactive) | 50.7 µM (inactive) | > 100 µM (inactive) | > 100 µM (inactive) | > 100 µM (inactive) | > 100 µM (inactive) | > 100 µM (inactive) | > 100 µM (inactive) | > 100 µM (inactive) | > 100 µM (inactive) | > 100 µM (inactive) | > 100 µM (inactive) | – | – | – | –
Clc1cc2ncn(C3CCCO3)c2cc1Cl (stereo not given) | – | 75.9 µM (inactive) | 78.5 µM (inactive) | 78.9 µM (inactive) | 98.9 µM (inactive) | 54.2 µM (inactive) | > 100 µM (inactive) | 54.1 µM (inactive) | 24.5 µM (inactive) | 88.9 µM (inactive) | 99.3 µM (inactive) | 43.3 µM (inactive) | > 100 µM (inactive) | 96.2 µM (inactive) | > 100 µM (inactive) | > 100 µM (inactive) | > 100 µM (inactive) | 99.8 µM (inactive) | 66.2 µM (inactive)
COC(=O)[C@H](Cc1ccccc1)NP(=O)(OCCC#N)OCC1OC(n2cc(C)c(=O)[nH]c2=O)CC1N=[N+]=[N-] (stereo not given in full) | – | > 100 µM (inactive) | > 100 µM (inactive) | > 100 µM (inactive) | > 100 µM (inactive) | > 100 µM (inactive) | > 100 µM (inactive) | > 100 µM (inactive) | 35 µM (inactive) | > 100 µM (inactive) | > 100 µM (inactive) | > 100 µM (inactive) | > 100 µM (inactive) | > 100 µM (inactive) | > 100 µM (inactive) | > 100 µM (inactive) | > 100 µM (inactive) | > 100 µM (inactive) | > 100 µM (inactive)
CN1CC2CC(C1)c1cccc(=O)n1C2 (stereo not given) | – | > 100 µM (inactive) | > 100 µM (inactive) | – | > 100 µM (inactive) | > 100 µM (inactive) | > 100 µM (inactive) | – | > 100 µM (inactive) | – | > 100 µM (inactive) | > 100 µM (inactive) | > 100 µM (inactive) | > 100 µM (inactive) | > 100 µM (inactive) | > 100 µM (inactive) | > 100 µM (inactive) | > 100 µM (inactive) | > 100 µM (inactive)
